These results are taken from patent US5728684A, “Determination of prodrugs metabolizable by the liver and therapeutic use thereof” (priority 1994, dated 1998).

The Km is the substrate concentration at which the rate is half of its maximum.

Data set [1] deals with aldehyde oxidase. Particulars: cited from earlier work.
The target in a further data set is IPdR oxidase. Kind of data set: Effect of inhibitors on the oxidation of IPdR to IUdR by liver homogenate. Particulars: for IC50: liver homogenate, read-out: IC50 (concentration at 50% inhibition of the conversion of IPdR to IUdR); for product inhibition: at 50 mM. In kind it is biochemical, rat. On the procedure: (§1) Rat hepatic tissue was washed with ice-cold 1.15% KCl and blotted dry. The tissue was then homogenized with a tissue homogenizer, in a volume of 1.15% KCl that was 3 times the tissue weight, to form a 25% (w/v) homogenate. The homogenate was then centrifuged at 10,000 g for 10 minutes at 4° C. The resulting supernatant was filtered through Miracloth (similar to cheese cloth) then dialyzed overnight against 50 mM Tris-HCl buffer pH 7.5 and stored at -80° C. before use. Rat hepatocytes were obtained by a perfusion technique then the cells were extracted with 10 mM phosphate buffer, pH 7.5, containing 1M KCl and dialyzed for 4 hours against 50 mM Tris-HCl buffer pH 7.5.
(§2) For the standard assay condition, the reaction mixture contained 50 mM Tris-HCl, pH 7.5, 1 mM EDTA, 180 μM of IPdR (or its analogs) and approximately 0.01 mg protein of 10,000 g supernatant of tissue homogenate in a final volume of 500 μl and the incubation was at 37° C. for 10 minutes unless specified otherwise. 300 μl of reaction mixture was removed at the end of incubation and mixed with 630 μl acetonitrile then agitated. The precipitated protein were removed by centrifugation and the supernatant was lyophilized to dryness. The samples were reconstituted to the original aliquot volume with the HPLC mobile phase buffer and analyzed on a Alltech RP-18 column. IPdR, IUdR and IU were detected at a UV absorption wavelength of 230 nm, and IPdR was also detected at a UV absorption wavelength of 335 nm. The mobile phase was 10% acetonitrile/90%mM ammonium acetate, pH 6.8 and the flow rate was 1 ml/minute. Standard curves of IPdR and IUdR were established from the integration value of known concentrations.

For data set [2], the system named is aldehyde oxidase. Briefly: Substrate specificity of the conversion of RPdR to RUdR. In kind it is in vitro ADME, rat. Particulars: for Conversion of RPdR to RUdR / Products of the reaction: substrate 180 μM; for Conversion of RPdR to RUdR: 2 to 4 separate experiments, in nmol/mg/min. On the procedure:
as §1, §2
(§3) Several 2-pyrimidinone deoxyribose analogs were examined for the conversion to their deoxyuridine counterparts. […] Nevertheless the relative Vmax for IPdR in the reaction at pH 7.5 and pH 9.5 is the same. […] The synthetic substrates for aldehyde oxidase appear to be better than its natural substrates, N^1 -methylnicotinamide and acetaldehyde, as judged by the potency of inhibition of N^1 -methylnicotinamide and acetaldehyde to the IPdR oxidation reaction (Table IV). The rate of reactivity of the liver enzyme with different IPdR analogs follows the order EPdR, IP, IPdR, 5-bromo-2-pyrimidinone deoxyribose (BPdR) and 5-methyl-2-pyrimidinone deoxyribose (MPdR) or 5-ethyl-2-pyrimidinone deoxyribose (EtPdR) (Table V). Electronegative substituents in the 5-position seemed to increase the substrate activity in this oxidation reaction.
Substrate specificity of the conversion of […]

For data set [3] the following is noted: cited from earlier work; for catabolism to the free base: followed by dehalogenation; for cytotoxicity limiting effective use as radiosensitizer: in vivo.
Data set [4] can be described thus: Michaelis constant / Vmax of 2-pyrimidinone deoxyribose analogs with the liver enzyme. The note with it: rat, liver aldehyde oxidase. In kind it is biochemical, rat. The method, then: as §1, §2, §3
Data set [5] deals with metastatic prostate cancer. Particulars: cited from earlier work.

Like-named read-outs stand apart in the source and are kept apart here. Bounds are passed on as bounds.

Turning to `O[C@H](CS)[C@H](O)CS` (racemic) [Dithiothreitol], in the data set with aldehyde oxidase [1] (literature), the “inhibition of aldehyde oxidase activity” value is listed as “could be inhibited”. Moreover, the IC50 on IPdR oxidase was determined as 100 µM.

As to `CCCCS` [1-Butane thiol], in the data set with IPdR oxidase, the product inhibition entry is “Approximately 25%” and the IC50 is greater than 50000 µM.

On to `CC=O` [Acetaldehyde], for which, in the data set with aldehyde oxidase [1] (literature), the “inhibition of aldehyde oxidase activity” value was “inhibited by acetaldehyde”. Besides, at IPdR oxidase, the IC50 is 5000 µM.

As to `O=c1ncc(Br)cn1[C@H]1C[C@H](O)[C@@H](CO)O1` [BPdR, 5-bromo-2-pyrimidinone-deoxyribose], the “Conversion of RPdR to RUdR” value with aldehyde oxidase [2] is given as 7 ± 2.

`O=c1[nH]c(=O)n([C@H]2C[C@H](O)[C@@H](CO)O2)cc1Br` [BUdR, 5-bromo-deoxyuridine]: in data set [3], the “catabolism to the free base” value is “rapid catabolism” and the “cytotoxicity limiting effective use as radiosensitizer” value was “limited by their cytotoxicity”.

Consider `N[C@@H](CS)C(=O)O` [Cysteine], for which the “inhibition of aldehyde oxidase activity” value with aldehyde oxidase [1] (at 5 mM) was “no significant inhibition”. Moreover, the “inhibition of aldehyde oxidase activity” value in the data set with aldehyde oxidase [1] (at 50 mM) was “potent inhibition”. Further, in the data set with IPdR oxidase, the product inhibition result is on record as “Approximately 40%” and the IC50 was greater than 50000 µM.

With `C#Cc1cnc(=O)n([C@H]2C[C@H](O)[C@@H](CO)O2)c1` [EPdR, 5-ethynyl-2-pyrimidinone-deoxyribose], in the data set with aldehyde oxidase [2], the “Conversion of RPdR to RUdR” value was found to be 20 ± 4. The Km came out at 77 µM in data set [4] (pH 7.5) and 46 µM in data set [4] (pH 9.5).

For the compound `CCc1cnc(=O)n([C@H]2C[C@H](O)[C@@H](CO)O2)c1` [EtPdR, 5-ethyl-2-pyrimidinone-deoxyribose], in the data set on aldehyde oxidase [2], the “Products of the reaction” value was “not detected” and the “Conversion of RPdR to RUdR” value is less than 0.1.

`OO` [Hydrogen peroxide]: at IPdR oxidase, the IC50 amounted to 10000 µM.

For the compound `NO` [Hydroxyl amine], on IPdR oxidase, the IC50 turned out to be 1000 µM.

On to `O=c1ncc(I)c[nH]1` [IP, 5-iodo-2-pyrimidinone], for which the “substrate quality for aldehyde oxidase” value with aldehyde oxidase [2] (in words) is given as “excellent substrate”. The “Conversion of RPdR to RUdR” value in the data set with aldehyde oxidase [2] came to 18 ± 3.

With `O=c1[nH]c(=O)n([C@H]2C[C@H](O)[C@@H](CO)O2)cc1I` [IUdR, iodo-deoxyuridine], in data set [3], the “catabolism to the free base” value is recorded as “rapid catabolism” and the “cytotoxicity limiting effective use as radiosensitizer” value is reported as “limited by their cytotoxicity”. Besides, the “systemic toxicity limiting clinical usage” value in data set [3] (systemic use) is “limited its clinical usage”.

In the case of `Cc1cnc(=O)n([C@H]2C[C@H](O)[C@@H](CO)O2)c1` [MPdR, 5-methyl-2-pyrimidinone-deoxyribose], in the data set on aldehyde oxidase [2], the “Products of the reaction” value is on record as “not detected” and the “Conversion of RPdR to RUdR” value is less than 0.1.

On to `OCCS` [Mercaptoethanol, 2-mercaptoethanol], for which the “inhibition of aldehyde oxidase activity” value in the data set with aldehyde oxidase [1] (literature) is listed as “could be inhibited”. Further, the IC50 on IPdR oxidase came to 1800 µM.

On to `C[n+]1cccc(C(N)=O)c1` [N^1 -methylnicotinamide], for which the “conversion by hepatic aldehyde oxidase” value in the data set with aldehyde oxidase [1] (to N1-methyl-2-pyridone-5-carboxamide and N1-methyl-4-pyridone-3-carboxamide) is given as “converts N^1 -methylnicotinamide”. For the same compound, at IPdR oxidase, the IC50 came to 1000 µM.

Turning to `CCCC(C(=O)OCCN(CC)CC)(c1ccccc1)c1ccccc1` [SKF-525A], the IC50 on IPdR oxidase was determined as 30 µM.

`NC(CO)(CO)CO` [Tris buffer]: in the data set with aldehyde oxidase [1] (literature), the “stimulation of aldehyde oxidase activity” value is “stimulated by potassium ferricyanide and Tris buffer”.

Consider `Cc1ccc(C(=O)Nc2ccc(S(=O)(=O)O)c3cc(S(=O)(=O)O)cc(S(=O)(=O)O)c23)cc1NC(=O)c1cccc(NC(=O)Nc2cccc(C(=O)Nc3cc(C(=O)Nc4ccc(S(=O)(=O)O)c5cc(S(=O)(=O)O)cc(S(=O)(=O)O)c45)ccc3C)c2)c1` [suramin], for which, in data set [5] (bolus), the “effectiveness of bolus dosages” value is given as “significantly less effective”. In addition, the “effective anti-cancer dosage relative to dosage resulting in paralysis” value in data set [5] (human trials, metastatic prostate cancer) is on record as “very close to the dosage resulting in paralysis”.
